Measurements from patent publication US12459951B2, “Compounds that interact with RAS superfamily proteins for treatment of cancers, inflammatory diseases, rasopathies, and fibrotic disease” (SHY Therapeutics, LLC, priority 2022, dated 2025).

Tests used:
[1] = tested on: Erk1/2 phosphorylation; assay: Erk1/2 Phosphorylation Assay (western blot), Panc-1; assay type: cell-based, human; conditions: at 10 μM, * = activation
In short: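 KRas G12D Panc-1 cells were treated 6 h at 37° C with compound at 10 μM or serial dilutions for IC50 (0.3% DMSO). In method 1, cells were serum-starved overnight (0.5% FBS) and then given 1.5 ng/ml EGF for 15 min. In method 2, cells stayed in 10% FBS without stimulation. Lysate phospho-Erk1/2 (Thr202/Tyr204) was read by western blot.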

[2] = tested on: Akt phosphorylation; assay: Akt Phosphorylation Assay (western blot), Panc-1; assay type: cell-based, human; conditions: at 10 μM, * = activation
In short: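 Panc-1 (KRas G12D) cells were treated with compound at 10 μM final (0.3% DMSO) for 6 h at 37 °C, or with serial dilutions for IC50. Cells were either serum-starved overnight in 0.5% FBS and then stimulated with 1.5 ng/ml EGF for 15 min, or kept in 10% FBS without stimulation. Akt Ser473 phosphorylation in lysates was read by western blot.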

[3] = tested on: IL6; assay: IL-6 Quantification Assay (ELISA), LPS-stimulated RAW 264.7; assay type: cell-based; parameters: inhibition: dose or concentration left out as unconfirmed; conditions: Mus musculus, RAW264.7; read-out: IL-6: % inh.

Row | SMILES | % inh of Erk1/2 phosphorylation in Panc-1 [1] | % inh of Akt phosphorylation in Panc-1 [2] | inhibition [3]
1 | COc1ccc(Nc2nc(-c3nccn3C)nn3cc(-c4ccn(C)n4)c(C)c23)nc1 [Compound 224, N-(5-Methoxypyridin-2-yl)-5-methyl-2-(1-methyl-1H-imidazol-2-yl)-6-(1-methyl-1H-pyrazol-3-yl)pyrrolo[2,1-f][1,2,4]triazin-4-amine] | C* (46-84% activation) | D* (85-100% activation) | 50 to 74%
2 | COc1ccc(N(C)c2nc(-c3nccn3C)nn3cc(-c4ccn(C)n4)c(C)c23)nc1 [Compound 225, N-(5-Methoxypyridin-2-yl)-N,5-dimethyl-2-(1-methyl-1H-imidazol-2-yl)-6-(1-methyl-1H-pyrazol-3-yl)pyrrolo[2,1-f][1,2,4]triazin-4-amine] | B (26-49% inhibition) | A* (1-25% activation) | 0%
3 | Cc1ccc(Nc2nc(-c3nccn3C)nn3cc(-c4ccn(C)n4)c(C)c23)nc1 [Compound 226, 5-Methyl-2-(1-methyl-1H-imidazol-2-yl)-6-(1-methyl-1H-pyrazol-3-yl)-N-(5-methylpyridin-2-yl)pyrrolo[2,1-f][1,2,4]triazin-4-amine] | A* (1-25% activation) | D* (85-100% activation) | 50 to 74%
4 | Cc1c(-c2ccn(C)n2)cn2nc(-c3nccn3C)nc(Nc3ccc(N(C)C)cn3)c12 [Compound 227, N5,N5-Dimethyl-N2-(5-methyl-2-(1-methyl-1H-imidazol-2-yl)-6-(1-methyl-1H-pyrazol-3-yl)pyrrolo[2,1-f][1,2,4]triazin-4-yl)pyridine-2,5-diamine] | C* (46-84% activation) | D* (85-100% activation) | 50 to 74%
5 | Cc1c(-c2ccn(C)n2)cn2nc(-c3nccn3C)nc(Nc3ccc(N4CCCC4)cn3)c12 [Compound 228, 5-Methyl-2-(1-methyl-1H-imidazol-2-yl)-6-(1-methyl-1H-pyrazol-3-yl)-N-(5-(pyrrolidin-1-yl)pyridin-2-yl)pyrrolo[2,1-f][1,2,4]triazin-4-amine] | A* (1-25% activation) | D* (85-100% activation) | 25 to 49%
6 | CCOc1ccc(Nc2nc(-c3nccn3C)nn3cc(-c4ccn(C)n4)c(C)c23)nc1 [Compound 229, N-(5-Ethoxypyridin-2-yl)-5-methyl-2-(1-methyl-1H-imidazol-2-yl)-6-(1-methyl-1H-pyrazol-3-yl)pyrrolo[2,1-f][1,2,4]triazin-4-amine] | A (1-25% inhibition) | D* (85-100% activation) | 26 to 49%
7 | Cc1c(-c2ccn(C)n2)cn2nc(-c3nccn3C)nc(Nc3ccc(OCC(F)(F)F)cn3)c12 [Compound 230, 5-Methyl-2-(1-methyl-1H-imidazol-2-yl)-6-(1-methyl-1H-pyrazol-3-yl)-N-(5-(2,2,2-trifluoroethoxy)pyridin-2-yl)pyrrolo[2,1-f][1,2,4]triazin-4-amine] | D* (85-100% activation) | D* (85-100% activation) | 50 to 74%
8 | Cc1c(-c2ccn(C)n2)cn2nc(-c3nccn3C)nc(Nc3ccc(OC(F)F)cn3)c12 [Compound 231, N-(5-(Difluorometh-oxy)pyridin-2-yl)-5-methyl-2-(1-methyl-1H-imidazol-2-yl)-6-(1-methyl-1H-pyrazol-3-yl)pyrrolo[2,1-f][1,2,4]triazin-4-amine] | D* (85-100% activation) | D* (85-100% activation) | 1 to 24%
9 | Cc1c(-c2ccn(C)n2)cn2nc(-c3nccn3C)nc(Nc3ccc(OC(F)(F)F)cn3)c12 [Compound 232, 5-Methyl-2-(1-methyl-1H-imidazol-2-yl)-6-(1-methyl-1H-pyrazol-3-yl)-N-(5-(trifluoro-methoxy)pyridin-2-yl)pyrrolo[2,1-f][1,2,4]triazin-4-amine] | B* (26-49% activation) | D* (85-100% activation) | 25 to 49%
10 | Cc1c(-c2ccn(C)n2)cn2nc(-c3nccn3C)nc(Nc3ccc(C(F)(F)F)cn3)c12 [Compound 233, 5-Methyl-2-(1-methyl-1H-imidazol-2-yl)-6-(1-methyl-1H-pyrazol-3-yl)-N-(5-(trifluoromethyl)pyridin-2-yl)pyrrolo[2,1-f][1,2,4]triazin-4-amine] | D* (85-100% activation) | D* (85-100% activation) | 25 to 49%
11 | Cc1c(-c2ccn(C)n2)cn2nc(-c3nccn3C)nc(Nc3ccc(C(F)F)cn3)c12 [Compound 234, N-(5-(Difluoromethyl)pyridin-2-yl)-5-methyl-2-(1-methyl-1H-imidazol-2-yl)-6-(1-methyl-1H-pyrazol-3-yl)pyrrolo[2,1-f][1,2,4]triazin-4-amine] | D* (85-100% activation) | D* (85-100% activation) | 1 to 24%
12 | COc1cc(Nc2nc(-c3nccn3C)nn3cc(-c4ccn(C)n4)c(C)c23)ncc1C [Compound 235, N-(4-Methoxy-5-methylpyridin-2-yl)-5-methyl-2-(1-methyl-1H-imidazol-2-yl)-6-(1-methyl-1H-pyrazol-3-yl)pyrrolo[2,1-f][1,2,4]triazin-4-amine] | B* (26-49% activation) | D* (85-100% activation) | 50 to 84%
13 | COc1cnc(Nc2nc(-c3nccn3C)nn3cc(-c4ccn(C)n4)c(C)c23)cc1C [Compound 236, N-(5-Methoxy-4-methylpyridin-2-yl)-5-methyl-2-(1-methyl-1H-imidazol-2-yl)-6-(1-methyl-1H-pyrazol-3-yl)pyrrolo[2,1-f][1,2,4]triazin-4-amine] | D* (85-100% activation) | B* (26-49% activation) | 0%
14 | COc1cc(Nc2nc(-c3nccn3C)nn3cc(-c4ccn(C)n4)c(C)c23)ncc1F [Compound 237, N-(5-Fluoro-4-methoxypyridin-2-yl)-5-methyl-2-(1-methyl-1H-imidazol-2-yl)-6-(1-methyl-1H-pyrazol-3-yl)pyrrolo[2,1-f][1,2,4]triazin-4-amine] | 0 (0% inhibition) | D* (85-100% activation) | 0%
15 | COc1cc(Nc2nc(-c3nccn3C)nn3cc(-c4ccn(C)n4)c(C)c23)ncc1C1CC1 [Compound 238, N-(5-Cyclopropyl-4-methoxypyridin-2-yl)-5-methyl-2-(1-methyl-1H-imidazol-2-yl)-6-(1-methyl-1H-pyrazol-3-yl)pyrrolo[2,1-f][1,2,4]triazin-4-amine] | A (1-25% inhibition) | D* (85-100% activation) | 75 to 100%
16 | Cc1cnc2c(c1)CCN2c1nc(-c2nccn2C)nn2cc(-c3ccn(C)n3)c(C)c12 [Compound 239, 5-Methyl-2-(1-methyl-1H-imidazol-2-yl)-6-(1-methyl-1H-pyrazol-3-yl)-4-(5-methyl-2,3-dihydro-1H-pyrrolo[2,3-b]pyridin-1-yl)pyrrolo[2,1-f][1,2,4]triazine] | C* (46-84% activation) | D* (85-100% activation) | 50 to 74%
17 | Cc1c(-c2ccn(C)n2)cn2nc(-c3nccn3C)nc(Nc3cc(C(C)(C)O)ccn3)c12 [Compound 240, 2-(2-((5-Methyl-2-(1-methyl-1H-imidazol-2-yl)-6-(1-methyl-1H-pyrazol-3-yl)pyrrolo[2,1-f][1,2,4]triazin-4-yl)amino)pyridin-4-yl)propan-2-ol] | A* (1-25% activation) | D* (85-100% activation) | 50 to 74%
18 | Cc1c(-c2ccn(C)n2)cn2nc(-c3nccn3C)nc(Nc3ccc(C(C)(C)O)cn3)c12 [Compound 241, 2-(6-((5-Methyl-2-(1-methyl-1H-imidazol-2-yl)-6-(1-methyl-1H-pyrazol-3-yl)pyrrolo[2,1-f][1,2,4]triazin-4-yl)amino)pyridin-3-yl)propan-2-ol] | D* (85-100% activation) | D* (85-100% activation) | 25 to 49%
19 | Cc1c(-c2ccn(C)n2)cn2nc(-c3nccn3C)nc(Nc3ccc(-n4ccnc4)cn3)c12 [Compound 242, N-(5-(1H-Imidazol-1-yl)pyridin-2-yl)-5-methyl-2-(1-methyl-1H-imidazol-2-yl)-6-(1-methyl-1H-pyrazol-3-yl)pyrrolo[2,1-f][1,2,4]triazin-4-amine] | 0 (0% inhibition) | D* (85-100% activation) | 25 to 49%
20 | Cc1c(-c2ccn(C)n2)cn2nc(-c3nccn3C)nc(Nc3ccc(-n4ccnc4C)cn3)c12 [Compound 243, 5-Methyl-N-(5-(2-methyl-1H-imidazol-1-yl)pyridin-2-yl)-2-(1-methyl-1H-imidazol-2-yl)-6-(1-methyl-1H-pyrazol-3-yl)pyrrolo[2,1-f][1,2,4]triazin-4-amine] | C* (46-84% activation) | D* (85-100% activation) | 0%
